Source: patent US20100190645A1 (priority 2007, published 2010)

Assays:
Type in all cases: cell-based
Pyricularia oryzae = conditions: single active compound, 0.3 ppm, 4 days incubation, optical density
Ustilago avenae = Ustilago avenae test (in vitro)/microtest; conditions: single active compound, 4 days incubation, optical density
Experimental: Ustilago avenae—Test (In Vitro)/Microtest
(§1) The microtest was performed in liquid medium with potato-dextrose broth (PDB) using microtitre plates.
(§2) The active compound is applied as the technical active substance dissolved in methanol.
A spore suspension of Ustilago avenae was used for inoculation. After 4 days of incubation by darkness under shaking (10 Hrz), the optical density in each cavity was evaluated with the aid of a microtitre plate reader.
(§3) 0% means an efficacy which corresponds to that of the control, while an efficacy of 100% means that no fungal growth is observed.

Phytophthora cryptogea = Phytophthora cryptogea test (in vitro)/microtest; conditions: single active compound, 0.3 ppm, 3 days incubation, optical density
Experimental: Phytophthora cryptogea—Test (In Vitro)/Microtest
as §1, §2
A mycelium suspension of Phytophthora ayptogea was used for inoculation. After 3 days of incubation by darkness under shaking (10 Hrz), the optical density in each cavity was evaluated with the aid of a microtitre plate reader.
as §3

Structure (SMILES)	Efficacy in % (Pyricularia oryzae) [%]	Efficacy in % (Ustilago avenae; Example B, 0.01 ppm) [%]	Efficacy in % (Ustilago avenae; Example D, 0.1 ppm) [%]	Efficacy in % (Phytophthora cryptogea) [%]
CO/N=C(/C(=O)OC)c1ccccc1CO/N=C(\C)c1cccc(C(F)(F)F)c1 [Trifloxystrobin, trifloxystrobin]	56	–	–	–
Cc1nn(C)c(F)c1C(=O)Nc1ccccc1C(C)CC(C)C (centres unmarked) [BYF 14182]	–	95	–	–
COc1ccc(-c2coc3cc(O)ccc3c2=O)cc1 [Formononetin]	11	13	17	14
COCC(=O)N(c1c(C)cccc1C)C(C)C(=O)OC (centres unmarked) [Metalaxyl, metalaxyl]	–	–	–	48
CC(C)(C)C(O)(CCc1ccc(Cl)cc1)Cn1cncn1 (centres unmarked) [Tebuconazole, tebuconazole]	–	–	96	–
